Literature values, collected in patent US10945961B2, “Method using enteric-coated etidronate for treating calcification, hypercalcaemia, and calcinosis of the brain and other organs” (ZY YTHERAPEUTICS LLC, priority 2017, dated 2021).
“Also recorded” adds a separate entry of the source.

Legend:
[1] = for plasma half-life: comparison of first- with 2nd and 3rd generation bisphosphonates
[2] = animal studies
[3] = preclinical studies; immediate-release
[4] = test system: patients with brain calcifications (Fahr's Disease)
[5] = in vitro

CC(O)(P(=O)(O)O)P(=O)(O)O [disodium etidronate, 1-hydroxyethane 1,1-diphosphonic acid]
plasma half-life [1]: 6 h
metabolism ([1]; in vivo): not metabolized
amount of drug absorbed after an oral dose ([1]; oral dose, immediate-release): 3%
absorbed dose excreted in urine ([1]; within 24 hours, fraction of the absorbed dose): approximately half
bone clearance estimates [2]: up to 165 days
crossing of the blood-brain barrier [3]: does not significantly cross the blood-brain barrier
symptomatic effect (seizures, headaches, Parkinsonian symptoms) ([4]; patients with brain calcification): reduction in seizures and headaches; also recorded: symptomatic improvement of seizures, headaches, and Parkinsonian symptoms
size of intracerebral calcifications ([4]; patients, finding of Loeb): does not reduce the size of intracerebral calcifications
affinity for solid-phase calcium phosphate [5]: high affinity

O=P(O)(O)C(O)(Cn1ccnc1)P(=O)(O)O [zolendronic acid]
plasma half-life [1]: 146 h
